Test results published in patent US20220160686A1, “MACROCYCLIC AZOLOPYRIDINE DERIVATIVES AS EED AND PRC2 MODULATORS” (Fulcrum Therapeutics, Inc., priority 2019, published 2022).
Like-named read-outs stand apart in the source and are kept apart here.

Test system: human P-glycoprotein HEK cells (HEK-P-gp)
Experiment: H3K27me3 immunocytochemistry assay in P-gp expressing HEK293T cells, with or without elacridar
Assay type: cell-based
Procedure: A plasmid encoding the human ABCB1 gene under the control of a CMV promoter was purchased from Origene (Cat #RC216080). The HEK293T cells were purchased from ATCC (Cat #CRL-3216) and were cultured for expansion in the recommended conditions. The HEK293T cells were transfected with 2 ug of the pCMV-ABCB1 plasmid using Lipofectamine 3000 following recommendations from the manufacturer (ThermoFisher Scientific, Cat #L3000008). After 24 h, cells were dissociated, and 5000 cells were seeded on a 10 cm tissue culture dish. On the next day, fresh media containing 5 nM Vinblastine (Sigma, Cat #V1377) was added, and media containing compound was replenished every 72 h. After surviving cells reached confluency, cells were passaged, and lines were maintained in the presence of 2.5 nM Vinblastine until further characterization.
P-gp expressing HEK293T, HUDEP2, and Human Mobilized Peripheral Blood Primary CD34+ cells were cultured for use in an H3K27me3 immunocytochemistry assay. HUDEP2 and Human Mobilized Peripheral Blood Primary CD34+ cells were cultured for use in an HbF immunocytochemistry assay. P-gp expressing HEK293T cells were maintained and passaged every 3-4 days by plating 300,000 viable cells in a T-25 culture flask containing 6 mLs of 293 Passaging Media comprised of DMEM (ThermoFisher #10566016), 10% fetal bovine serum (ThermoFisher #A3160502), 1% penicillin-streptomycin (ThermoFisher #15140122), and 2.5 nM Vinblastine (Sigma #V1377). To evaluate the inhibitory effect of the compounds of the present disclosure and their brain penetrant properties via P-gp mediated efflux, the H3K27me3 immunocytochemistry assay was conducted in the presence or absence of 250 nM of the P-gp inhibitor, elacridar. Poor brain penetrant compounds were expected to show higher potencies in the presence of Elacridar. However, brain penetrant compounds would show similar potencies irrespective of whether Elacridar is present or not. In these experiments plates without elacridar were seeded with P-gp expressing HEK293T cells at 1000 viable cells per well in a poly-d-lysine coated 384-well plate (Corning Cat #356697) in 45 μL of 293 Assay Media comprised of DMEM (ThermoFisher #10566016), 10% fetal bovine serum (ThermoFisher #A3160502), 1% penicillin-streptomycin (ThermoFisher #15140122). A replicate set of plates were seeded under the same conditions with 45 μL of 293 Assay Media supplemented with 250 nM of Elacridar to inhibit P-gp activity. Compounds were serially diluted at 10× concentration in 293 Media, and 5 μL transferred to their respective wells on both sets of plates for a total volume of 50 μL per well. The compound treated HEK293T cells were allowed to incubate for 4 days at 37° C., 85% relative humidity, and 5% CO2 before proceeding to ICC Fix and Stain protocol.
The Fix and Stain Protocol was the same for HEK293T, HUDEP2, and Primary CD34+ cell assays except the specific primary and secondary antibodies used for detection. Following 4 days of compound treatment, the respective plates were washed once with 25 μL of PBS (ThermoFisher #10010023) and fixed with 25 μL of 4% paraformaldehyde (ThermoFisher #28908) for 10 minutes at room temperature. The plates were then washed three times with 25 μL of PBS. Subsequent to that, the cells were permeabilized and blocked for 1 hour at room temperature in 25 μL of Perm/Block buffer comprised of IX PBS, 1% bovine serum albumin (ThermoFisher #A3294), 10% fetal bovine serum (ThermoFisher #A3160502), 0.3M glycine (Sigma #G7126), and 0.1% tween-20 (Sigma #P7949). This was followed by additional washing (three times) of the plates with 25 μL of 0.1% tween in PBS.
For the H3K27me3 assay, the cells were incubated overnight at 4° C. with 25 μL of H3K27me3 Primary Antibody (Cell Signaling #9733) diluted 1:200 in 0.1% tween-20 in PBS. […]

[1] = Homo sapiens, HEK293, 96 h, without elacridar, 4 days compound treatment, read-out: IC50, inhibitory activity on human P-glycoprotein HEK cells (HEK-P-gp)
[2] = Homo sapiens, HEK293, with 250 nM elacridar, 4 days compound treatment, read-out: IC50, inhibitory activity on human P-glycoprotein HEK cells (HEK-P-gp) pretreated with elacridar

Compound	IC50 [nM]	IC50 [1] [nM]	IC50 [2] [nM]
Cn1cc(Cc2cc3c(n4cnnc24)NCc2c(F)cccc2COC3)cn1 [Compound 183, 12-fluoro-4-((1-methyl-1H-pyrazol-4-yl)methyl)-6,8,13,14-tetrahydro-[1,2,4]triazolo[4′,3′:1,6]pyrido[3,2-c]benzo[g][1,5]oxazonine]		> 500	> 500
(S)-1-(4-(12-fluoro-7a,8,13,14-tetrahydro-7H-[1,2,4]triazolo[4′,3′:1,6]pyrido[3,2-b]benzofuro[4,3-fg][1,4]oxazonin-4-yl)piperidin-1-yl)ethan-1-one [Compound 9]	> 500		
CN(C)c1cc(-c2cc3c(n4cnnc24)NCc2c(F)ccc4c2[C@@H](CO4)CO3)n(C)n1 [Example 91, (S)-5-(12-fluoro-7a,8,13,14-tetrahydro-7H-[1,2,4]triazolo[4′,3′:1,6]pyrido[3,2-b]benzofuro[4,3-fg][1,4]oxazonin-4-yl)-N,N,1-trimethyl-1H-pyrazol-3-amine]	100 to 500		
Cc1cc(C)c(-c2cc3c(n4cnnc24)NCc2c(F)ccc4c2[C@@H](CO4)CO3)cn1 [Example 96, (S)-4-(4,6-dimethylpyridin-3-yl)-12-fluoro-7a,8,13,14-tetrahydro-7H-[1,2,4]triazolo[4′,3′:1,6]pyrido[3,2-b]benzofuro[4,3-fg][1,4]oxazonine]	50 to 100		
Cc1ncc(-c2cc3c(n4cnnc24)NCc2c(F)cccc2COC3)c(C)n1 [Compound 182, 4-(2,4-dimethylpyrimidin-5-yl)-12-fluoro-6,8,13,14-tetrahydro-[1,2,4]triazolo[4′,3′:1,6]pyrido[3,2-c]benzo[g][1,5]oxazonine]		> 500	> 500
COc1cc(C)c(-c2cc3c(n4cnnc24)NCc2c(F)ccc4c2[C@@H](CO4)CO3)cn1 [Example 68, (S)-12-fluoro-4-(6-methoxy-4-methylpyridin-3-yl)-7a,8,13,14-tetrahydro-7H-[1,2,4]triazolo[4′,3′:1,6]pyrido[3,2-b]benzofuro[4,3-fg][1,4]oxazonine]	50 to 100		
COC(=O)N1CCC(c2cc3c(n4cnnc24)NCc2c(F)cccc2COC3)CC1 [Compound 181, methyl 4-(12-fluoro-6,8,13,14-tetrahydro-[1,2,4]triazolo[4′,3′:1,6]pyrido[3,2-c]benzo[g][1,5]oxazonin-4-yl)piperidine-1-carboxylate]		> 500	> 500
Cc1nc(-c2cc3c(n4cnnc24)NCc2c(F)ccc4c2[C@@H](CO4)CO3)ccc1C(F)F [Example 77, (S)-4-(5-(difluoromethyl)-6-methylpyridin-2-yl)-12-fluoro-7a,8,13,14-tetrahydro-7H-[1,2,4]triazolo[4′,3′:1,6]pyrido[3,2-b]benzofuro[4,3-fg][1,4]oxazonine]	100 to 500		

Second part, led by results:

IC50 [nM]	Compound	IC50 [1] [nM]	IC50 [2] [nM]
50 to 100	Fc1ccc2c3c1CNc1c(cc(-c4ccnn4CC(F)(F)F)c4nncn14)OC[C@@H]3CO2 [Example 72, (S)-12-fluoro-4-(1-(2,2,2-trifluoroethyl)-1H-pyrazol-5-yl)-7a,8,13,14-tetrahydro-7H-[1,2,4]triazolo[4′,3′:1,6]pyrido[3,2-b]benzofuro[4,3-fg][1,4]oxazonine]		
< 25	CN(C)C(=O)c1ccc(-c2cc3c(n4cnnc24)NCc2c(F)ccc4c2[C@@H](CO4)CO3)cn1 [Example 152, (S)-5-(12-fluoro-7a,8,13,14-tetrahydro-7H-[1,2,4]triazolo[4′,3′:1,6]pyrido[3,2-b]benzofuro[4,3-fg][1,4]oxazonin-4-yl)-N,N-dimethylpicolinamide]		
< 25	(S)-12-fluoro-4-(2-methylpyridin-3-yl)-7a,8,13,14-tetrahydro-7H-[1,2,4]triazolo[4′,3′:1,6]pyrido[3,2-b]benzofuro[4,3-fg][1,4]oxazonine [Compound 8]		
25 to 50	Cc1nccc(-c2cc3c(n4cnnc24)NCc2c(F)ccc4c2[C@@H](CO4)CO3)c1F [Example 86, (S)-12-fluoro-4-(3-fluoro-2-methylpyridin-4-yl)-7a,8,13,14-tetrahydro-7H-[1,2,4]triazolo[4′,3′:1,6]pyrido[3,2-b]benzofuro[4,3-fg][1,4]oxazonine]		
< 25	Cn1cc(-c2cc3c(n4cnnc24)NCc2c(F)ccc4c2[C@@H](CO4)CO3)ccc1=O [Example 69, (S)-5-(12-fluoro-7a,8,13,14-tetrahydro-7H-[1,2,4]triazolo[4′,3′:1,6]pyrido[3,2-b]benzofuro[4,3-fg][1,4]oxazonin-4-yl)-1-methylpyridin-2(1H)-one]		
< 25	COc1nccc(C)c1-c1cc2c(n3cnnc13)NCc1c(F)ccc3c1[C@@H](CO3)CO2 [Example 71, (S)-12-fluoro-4-(2-methoxy-4-methylpyridin-3-yl)-7a,8,13,14-tetrahydro-7H-[1,2,4]triazolo[4′,3′:1,6]pyrido[3,2-b]benzofuro[4,3-fg][1,4]oxazonine]		
25 to 50	Cn1cnc(-c2cc3c(n4cnnc24)NCc2c(F)ccc4c2[C@@H](CO4)CO3)c1 [Example 94, (S)-12-fluoro-4-(1-methyl-1H-imidazol-4-yl)-7a,8,13,14-tetrahydro-7H-[1,2,4]triazolo[4′,3′:1,6]pyrido[3,2-b]benzofuro[4,3-fg][1,4]oxazonine]		
